According to PubChem BioAssay AID248 (DTP/NCI, 2004):
Several values for one entry are separate records, joined by “and”; a condition that tells them apart may be missing. Equal values may be shown once. Inconclusive results and toxic doses are left out. Rule as the data show it: active = T/C of 150% or more; inactive = T/C below 125%.

Tested on: L1210 leukemia ip in BDF1 mice, survival T/C
Assay: NCI In Vivo Anticancer Drug Screen. Data for tumor model L1210 Leukemia (intraperitoneal) in B6D2F1 (BDF1) mice
Conditions: endpoint: mean survival time, higher = longer survival
Procedure, shortened: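 Tumor was transplanted into mice, which were then dosed with test compound or vehicle alone. Survival was recorded for each group, and the treated figure was expressed relative to the control figure.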

[1] = dose: 25.0 mg/kg/injection, schedule: Q04DX002 (ip), vehicle: saline with Tween-80
[2] = dose: 50.0 mg/kg/injection, schedule: Q04DX002 (ip), vehicle: saline with Tween-80
[3] = dose: 100.0 mg/kg/injection, schedule: Q04DX002 (ip), vehicle: saline with Tween-80
[4] = dose: 100.0 mg/kg/injection, schedule: Q04DX003 (ip), vehicle: saline with Tween-80
[5] = dose: 100.0 mg/kg/injection, schedule: Q01DX009 (ip), vehicle: saline
[6] = dose: 100.0 mg/kg/injection, schedule: Q04DX003 (ip), vehicle: saline
[7] = dose: 200.0 mg/kg/injection, schedule: Q01DX009 (ip), vehicle: saline
[8] = dose: 200.0 mg/kg/injection, schedule: Q04DX003 (ip), vehicle: saline
[9] = dose: 400.0 mg/kg/injection, schedule: Q04DX003 (ip), vehicle: saline
[10] = dose: 100.0 mg/kg/injection, schedule: Q01DX001 (ip), vehicle: saline
[11] = dose: 200.0 mg/kg/injection, schedule: Q01DX001 (ip), vehicle: saline
[12] = dose: 400.0 mg/kg/injection, schedule: Q01DX001 (ip), vehicle: saline
[13] = dose: 100.0 mg/kg/injection, schedule: Q04DX003 (ip), vehicle: Klucel (hydroxypropylcellulose) (HPC)
[14] = dose: 200.0 mg/kg/injection, schedule: Q04DX003 (ip), vehicle: Klucel (hydroxypropylcellulose) (HPC)
[15] = dose: 400.0 mg/kg/injection, schedule: Q04DX003 (ip), vehicle: Klucel (hydroxypropylcellulose) (HPC)
[16] = dose: 25.0 mg/kg/injection, schedule: Q01DX009 (ip), vehicle: Klucel (hydroxypropylcellulose) (HPC)
[17] = dose: 25.0 mg/kg/injection, schedule: Q04DX003 (ip), vehicle: Klucel (hydroxypropylcellulose) (HPC)
[18] = dose: 50.0 mg/kg/injection, schedule: Q01DX009 (ip), vehicle: Klucel (hydroxypropylcellulose) (HPC)
[19] = dose: 50.0 mg/kg/injection, schedule: Q04DX003 (ip), vehicle: Klucel (hydroxypropylcellulose) (HPC)
[20] = dose: 100.0 mg/kg/injection, schedule: Q01DX001 (ip), vehicle: Klucel (hydroxypropylcellulose) (HPC)
[21] = dose: 100.0 mg/kg/injection, schedule: Q01DX009 (ip), vehicle: Klucel (hydroxypropylcellulose) (HPC)
[22] = dose: 200.0 mg/kg/injection, schedule: Q01DX001 (ip), vehicle: Klucel (hydroxypropylcellulose) (HPC)
[23] = dose: 400.0 mg/kg/injection, schedule: Q01DX001 (ip), vehicle: Klucel (hydroxypropylcellulose) (HPC)

Measured: T/C

CC12CC(c3ccccc3)C(C)(C(c3ccccc3)=C1c1ccccc1)C2(C)O (stereo not given)
inactive: dose: 100.0 mg/kg/injection, schedule: Q01DX001 (ip), vehicle: saline with Tween-80 93 % of control | dose: 200.0 mg/kg/injection, schedule: Q01DX001 (ip), vehicle: saline with Tween-80 100 % of control | dose: 400.0 mg/kg/injection, schedule: Q01DX001 (ip), vehicle: saline with Tween-80 88 % of control

CC(C)(CP(c1ccccc1)c1ccccc1)c1ccccc1
inactive: [1] 95 % of control | [2] 95 % of control | [3] 89 % of control | dose: 200.0 mg/kg/injection, schedule: Q04DX002 (ip), vehicle: saline with Tween-80 92 % of control

CCCCOC(=O)c1ccccn1
inactive: [4] 99 % of control | dose: 200.0 mg/kg/injection, schedule: Q04DX003 (ip), vehicle: saline with Tween-80 94 % of control

O=C1CSC(=S)N1c1ccco1
inactive: [5] 102 % of control | [6] 93 % of control | [7] 102 % of control | [8] 88 % of control | [9] 93 % of control

CCCC1(c2ccccc2)CC(=O)NC1=O (stereo not given)
inactive: [10] 100 % of control | [5] 106 % of control and 107 % of control | dose: 100.0 mg/kg/injection, schedule: Q04DX002 (ip), vehicle: saline 100 % of control and 108 % of control | [6] 103 % of control | [11] 97 % of control | [7] 117 % of control and 89 % of control | dose: 200.0 mg/kg/injection, schedule: Q04DX002 (ip), vehicle: saline 105 % of control and 112 % of control | [8] 97 % of control | [12] 95 % of control | dose: 400.0 mg/kg/injection, schedule: Q01DX009 (ip), vehicle: saline 98 % of control and 86 % of control | dose: 400.0 mg/kg/injection, schedule: Q04DX002 (ip), vehicle: saline 105 % of control and 108 % of control | [9] 97 % of control

O=c1[nH]nc(N/N=C/c2ccccc2)n1/N=C/c1ccccc1
inactive: [13] 100 % of control | [14] 96 % of control | [15] 94 % of control

CC1=NCCc2cc3[nH]c4ccccc4c3cc21
inactive: [16] 102 % of control | [17] 99 % of control | [18] 96 % of control | [19] 104 % of control | [20] 94 % of control | [21] 94 % of control | [13] 100 % of control

Cc1ccc(C(=O)C[S+](C)C)c(C)c1
inactive: dose: 25.0 mg/kg/injection, schedule: Q01DX009 (ip), vehicle: saline 98 % of control | dose: 50.0 mg/kg/injection, schedule: Q01DX009 (ip), vehicle: saline 95 % of control | [4] 102 % of control

Cc1ccc(N)cc1Cl
inactive: dose: 100.0 mg/kg/injection, schedule: Q04DX003 (ip), vehicle: alcohol 97 % of control | dose: 200.0 mg/kg/injection, schedule: Q04DX003 (ip), vehicle: alcohol 102 % of control | dose: 400.0 mg/kg/injection, schedule: Q04DX003 (ip), vehicle: alcohol 88 % of control

NC(CC[Se]CC(N)C(=O)O)C(=O)O (stereo not given)
inactive: dose: 0.5 mg/kg/injection, schedule: Q01DX009 (ip), vehicle: acetone 110 % of control | dose: 1.0 mg/kg/injection, schedule: Q01DX009 (ip), vehicle: acetone 103 % of control | dose: 2.0 mg/kg/injection, schedule: Q01DX009 (ip), vehicle: acetone 95 % of control | dose: 4.0 mg/kg/injection, schedule: Q01DX009 (ip), vehicle: acetone 108 % of control

CC1(C)CN=C(c2ccc([N+](=O)[O-])cc2)S1
inactive: [20] 100 % of control | [22] 102 % of control | [23] 100 % of control

CCCCNc1nc(N)nc(N)c1[N+](=O)[O-]
inactive: [13] 103 % of control | [14] 98 % of control | [15] 101 % of control

NCCSCCc1ccccc1
inactive: [1] 100 % of control | [2] 103 % of control

C=C(Br)CN(CC)CC
inactive: dose: 12.5 mg/kg/injection, schedule: Q01DX009 (ip), vehicle: Klucel (hydroxypropylcellulose) (HPC) 90 % of control | dose: 12.5 mg/kg/injection, schedule: Q04DX003 (ip), vehicle: Klucel (hydroxypropylcellulose) (HPC) 100 % of control | [16] 91 % of control | [17] 107 % of control | [19] 96 % of control

Cc1ccc2nc(C)cc(NC(=O)c3ccccc3)c2c1
inactive: dose: 5.0 mg/kg/injection, schedule: Q01DX001 (ip), vehicle: saline 110 % of control | dose: 10.0 mg/kg/injection, schedule: Q01DX001 (ip), vehicle: saline 95 % of control | dose: 20.0 mg/kg/injection, schedule: Q01DX001 (ip), vehicle: saline 100 % of control | dose: 40.0 mg/kg/injection, schedule: Q01DX001 (ip), vehicle: saline 105 % of control | dose: 80.0 mg/kg/injection, schedule: Q01DX001 (ip), vehicle: saline 106 % of control

O=C(O)C1(C(=O)O)CCC1c1ccccc1 (stereo not given)
inactive: [10] 94 % of control | [11] 113 % of control | [12] 102 % of control

CCOC(=O)Nc1cc(N)c(N)c(NC(c2ccccc2)c2ccccc2)n1
inactive: dose: 100.0 mg/kg/injection, schedule: Q01DX001 (ip), vehicle: other 102 % of control | dose: 200.0 mg/kg/injection, schedule: Q01DX001 (ip), vehicle: other 104 % of control | dose: 400.0 mg/kg/injection, schedule: Q01DX001 (ip), vehicle: other 100 % of control

NC(=S)N/N=C/c1ccc(C2CCNCC2)cc1
inactive: dose: 15.0 mg/kg/injection, schedule: Q01DX Z (ip), vehicle: methylcellulose (MC) 102 % of control | dose: 30.0 mg/kg/injection, schedule: Q01DX Z (ip), vehicle: methylcellulose (MC) 92 % of control | dose: 60.0 mg/kg/injection, schedule: Q01DX Z (ip), vehicle: methylcellulose (MC) 104 % of control | dose: 120.0 mg/kg/injection, schedule: Q01DX Z (ip), vehicle: methylcellulose (MC) 104 % of control

COC(=O)CCc1ccc(NP(=O)(N2CC2)N2CC2)cc1
inactive: dose: 25.0 mg/kg/injection, schedule: Q01DX015 (ip), vehicle: carboxymethylcellulose (CMC) 122 % of control | dose: 50.0 mg/kg/injection, schedule: Q01DX015 (ip), vehicle: carboxymethylcellulose (CMC) 119 % of control

O=C(N/N=C\c1cccc([N+](=O)[O-])c1)N/N=C/c1cccc([N+](=O)[O-])c1
inactive: dose: 6.25 mg/kg/injection, schedule: Q04DX003 (ip), vehicle: saline with Tween-80 92 % of control | dose: 12.5 mg/kg/injection, schedule: Q04DX003 (ip), vehicle: saline with Tween-80 97 % of control | dose: 25.0 mg/kg/injection, schedule: Q04DX003 (ip), vehicle: saline with Tween-80 87 % of control

CC(C)(C)C1CCC(Cl)C(O)C1 (stereo not given)
inactive: [5] 104 % of control | [7] 100 % of control

CCCCCP(=O)(CCCC)CCCCC
inactive: [18] 89 % of control | [21] 89 % of control

CCCC(CCC)OC(=O)C(O)c1ccccc1 (stereo not given)
inactive: dose: 100.0 mg/kg/injection, schedule: Q01DX001 (ip), vehicle: acetone 94 % of control | dose: 200.0 mg/kg/injection, schedule: Q01DX001 (ip), vehicle: acetone 94 % of control | dose: 400.0 mg/kg/injection, schedule: Q01DX001 (ip), vehicle: acetone 100 % of control

O=C(CCl)Nc1ccc([N+](=O)[O-])cc1
inactive: [1] 103 % of control | [2] 93 % of control | [3] 97 % of control

CN(C)C(CCN1CCCCC1)CN1CCCCC1 (stereo not given)
inactive: [10] 100 % of control | [11] 96 % of control | [12] 90 % of control

CC(C)CCCCCc1ccc(OCCOc2ccc(C(=O)Nc3ccc(S(=O)(=O)F)cc3[N+](=O)[O-])cc2)cc1
inactive: [20] 100 % of control | [22] 94 % of control | [23] 94 % of control
